Where two headings read alike, the source gives them in different places.
How the values were obtained:
NK1 [1] = target: T1, NK1 (Homo sapiens, UniProt P14210); assay: SPR fragment library screening against NK1; type: binding; parameters: made in house; host or cells: Pichia pastoris; details: for Ranking order: based on fragment screening, rank among the 71 NK1 hits (ESI Tables S3-S7); for SPR response: normalised relative value against NK1
Description: Supplementary Materials and Methods
Fragment library screening and data analysis
Met567 (soluble truncated f ragment of the MET ectodomain, residues 25- 567), NK1 and t he SPH domain were immobilized on CM5 chips by amine coupling. NK1 was diluted into 10 m M phosphate pH 7.0 and the SPH domain into 10 mM acetate pH 5.5 to a final concentration of 2.5 μM and 1 μM, respectively, for coupling. The immobilization wizard within the Biacore T100 software was set to “aim for immobiliz ed level” of 8000 RU to achieve complete saturation of the chip surface.
W ith minor deviations, the procedure and conditions outlined below were used f or a ll screening s of an in-house fragment library of 1338 members against individual target proteins. The running buffer was PBS pH 7.4, 0.05% Tween 20, 0.25% DMSO (1% DMSO for Met567). Fragments were stored as 100 mM stock solutions in DMSO. Prior to screening, fragment samples were diluted to 500 μM (1 mM f or Met567) in running buffer.
Screening was performed in 96- we ll plates at a flow rate of 30 μl min-1 with 1 min sample injection f ollowed by dissociation f or 1 min and surf ace regeneration using 1 M NaCl f or 30 […]
post-regeneration baseline exceeded the pre- sample baseline by more than 10 RU, a second regeneration cycle with 50% ethylene glycol was used. In order to be able to correct for small variations in DMSO concentration between samples, eight solvent samples ranging from 0.012 to 1.5% DMSO were injected every 40th cycle. To monitor the binding capacity of the NK1, SPH and Met567 surfaces throughout the screening, injections of 500 μM HEPES (NK1), 0.25 μM Met567 (SPH) and 0.2 μM NK1 and 1% DMSO (Met567) were carried out every 40th cycle. The flow cell temperature was 25°C. NK1 and the SPH domain were immobilized on the same chip (channels 2 and 3 respectively) and were theref ore screened in parallel. Met567 was screened separately and results are published in an accompanying paper (W in t er et al. 2015, in revision).
For data analysis, fir st, all responses were reference and solvent corrected. 1 Next, equilibrium binding for every fragment was determined and hits established by applying several filters: sensorgram shape, upper and lower threshold. Typical sensorgrams from fragment screening show “square curves” in SPR due to the fast on and off rates and fragments not showing this response were discarded from further analysis. Binding levels are represented as response units (RU) but the SPR signal is a convolution of multiple parameters including target coupling density, target -binding activity, target molecular weight and molecular weight of each injected fragment. To be able to identif y hits accurately and to be able to compare responses between different plates and targets, data were normalised against these factors. First the theoretical maximum response for each fragment was calculated using equation 1:
RRmmm = CCCCCCCC ddCdCdd× MMffmCmdCd (Equation 1)
This RUmax value diff ers for each protein target because it depends on the molecular weight of the protein and the amount of protein immobilized on the chip (coupling density). The RUmax was then used to calculate the normalised relative SPR response:
NNNNNNNNNN NNNNr NrN SSR NNNrNrNN = RRcppppcppc× 100% (Equation 2) […]
fragment should cause upon binding. 100% response would be 1:1 binding wit h levels above 100% implying over-stoichiometric binding. […]
Fragment library screening to identify small molecule binders

NK1 [2] = target: T1, NK1; assay: SPR steady-state binding to immobilized NK1 (Biacore T100); parameters: made in house; host or cells: Pichia pastoris
Description: Binding constants of piperazine-like compounds and fragments were determined using a Biacore T100 instrument. NK1 was immobilized on a CM5 chip by amine coupling to a density of 6000 RU. Compounds were stored as 100 mM stock solutions in water and serial dilutions were prepared in the running buffer (PBS pH 7.4, 0.05% Tween 20). The compound solutions were injected onto the surface of the chip at a flow rate of 30 μL min^–1, contact time was 1 min and dissociation time 1 min. Sensorgrams were analysed using the Biacore T100 evaluation software and the binding constants determined.

[3] = fragments 500 μM (ESI Tables S3-S7)
[4] = steady-state binding constant from SPR (ESI Tables S3-S7), read-out: KD
[5] = initial fragment screening, fragments 500 μM (Table 3)
[6] = steady-state binding constant from SPR, fragment hits (Table 3, text), read-out: KD
[7] = steady-state binding constant from SPR, MB605-related compounds (Table 4), read-out: KD

T1 sequence (P14210 32-210 isoform P14210-6 limits assumed): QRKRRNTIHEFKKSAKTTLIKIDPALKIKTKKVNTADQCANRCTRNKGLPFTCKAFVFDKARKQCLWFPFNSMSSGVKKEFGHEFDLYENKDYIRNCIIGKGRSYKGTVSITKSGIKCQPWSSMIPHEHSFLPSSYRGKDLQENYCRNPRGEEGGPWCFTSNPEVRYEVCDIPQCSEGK

| SMILES | Ranking order (NK1 [1]) | SPR response (NK1 [1]; [3]) [%] | further results |
| --- | --- | --- | --- |
| Cc1cccc(CN)c1C [MB1274] | 7 | 105 | Kd (NK1 [2]; [4]): 1600 µM |
| CNCc1ccncc1 [MB1003] | 6 | 107 | Kd (NK1 [2]; [4]): 6400 µM |
| CCCc1ccc(C(C)=O)cc1 [MB1315] | 47 | 52 | SPR response (NK1 [1]; [5]): 52%; Kd (NK1 [2]; [6]): 940 ± 90 µM |
| COc1cccc(OC)c1SC [MB894] | 51 | 49 |  |
| Nc1ccc(F)cc1F [MB396] | 18 | 83 | Kd (NK1 [2]; [4]): 1100 µM |
| CC1CCN(C(=O)C2CCCCN2)CC1 (stereo not drawn) [MB1015] | 60 | 35 |  |
| O=C(O)c1coc2c1C(=O)CCC2 [MB417] | 17 | 87 | SPR response (NK1 [1]; [5]): 87%; Kd (NK1 [2]; [6]): 420 ± 40 µM |
| NC(=S)c1ncc(C(F)(F)F)cc1N1CCCC1 [MB1218] | 37 | 57 | Kd (NK1 [2]; [4]): 17300 µM |
| Nc1cccc(OC(F)(F)F)c1 [MB406] | 54 | 42 |  |
| O=C(O)CCc1ccccc1 [501-520-0, hydrocinnamic acid] |  |  | Kd (NK1 [2]; [7]): 2200 ± 900 µM |
| CC1(C(=O)O)CC2C=CC1C2 (stereo not drawn) [MB385] | 42 | 54 |  |
| NC(=O)c1ccc(-c2csnn2)cc1 [MB414] | 50 | 50 |  |
| COC(=O)CSc1ccccc1 [MB1308] | 34 | 60 |  |
| COC(=O)c1ccccc1F [MB1253] | 11 | 98 | Kd (NK1 [2]; [4]): 2900 µM |
| CCC1CCC(N)CC1 (stereo not drawn) [MB1016] | 61 | 35 |  |
| Cc1nc(C(C)(C)C)cs1 [MB887] | 32 | 62 |  |
| N#CCOc1cccc(C(F)(F)F)c1 [MB1251] | 27 | 66 |  |
| CN(C)C(=O)c1ccc2nccnc2c1 [MB1058] | 29 | 63 |  |
| COC(=O)c1ccc(F)cc1Cl [MB1301] | 25 | 70 |  |
| Nc1ccc(OC(F)(F)F)cc1 [MB1100] | 70 | 27 |  |
| Cc1ccc(C(=O)O)cc1Cl [MB1306] | 21 | 77 | Kd (NK1 [2]; [4]): 2500 µM |
| O=C(O)c1ccc2[nH]ncc2c1 [AT0541] | 38 | 56 |  |

| SMILES | Ranking order (NK1 [1]) | SPR response (NK1 [1]; [3]) [%] | further results |
| --- | --- | --- | --- |
| FC(F)(F)c1cc[nH]n1 [MB925] | 48 | 52 | Kd (NK1 [2]; [4]): 1300 µM |
| Cc1csc(C(=O)O)c1 [MB921] | 52 | 49 |  |
| Cc1cc(N)n(C)n1 [MB935] | 41 | 54 | Kd (NK1 [2]; [4]): 1000 µM |
| Cc1ncsc1C(=O)O [MB996] | 56 | 38 |  |
| O=C(O)C1CCNCC1 [MB1129] | 67 | 30 |  |
| CNCc1cccnc1 [MB1290] | 9 | 102 | Kd (NK1 [2]; [4]): 1640 µM |
| CC(=O)NCc1cccnc1 [MB1317] | 35 | 60 |  |
| OC12CC3CC(CC(C3)C1)C2 [MB405] | 40 | 56 |  |
| CC(=O)c1ccc(OC(F)(F)F)cc1 [MB1291] | 26 | 68 |  |
| Cc1cccc(C)c1C#N [MB1283] | 13 | 94 | KD (NK1 [2]; steady-state binding constant from SPR, fragment hits (Table 3, text)): lowest affinity |
| COC(=O)c1ccccc1OC(F)(F)F [MB1292] | 30 | 63 |  |
| Cc1cc(N)no1 [MB397] | 20 | 81 |  |
| Cc1nn(C)c(C)c1N [MB893] | 36 | 59 | Kd (NK1 [2]; [4]): 1500 µM |
| Cc1nc(CC(=O)O)cs1 [MB895] | 45 | 53 | SPR response (NK1 [1]; [5]): 53%; Kd (NK1 [2]; [6]): 430 ± 50 µM |
| COc1ccc(C#N)cn1 [MB1261] | 12 | 95 | SPR response (NK1 [1]; [5]): 95%; Kd (NK1 [2]; [6]): 350 ± 40 µM |
| COC(=O)c1scc(C)c1Cl [MB916] | 64 | 34 |  |
| Cc1cccc(C(N)=O)c1C [MB1284] | 15 | 90 | SPR response (NK1 [1]; [5]): 90%; Kd (NK1 [2]; [6]): 860 ± 70 µM |
| CSc1ccc(C(=O)O)s1 [MB1217] | 49 | 50 |  |
| Cc1cc(N)[nH]n1 [MB936] | 39 | 56 | Kd (NK1 [2]; [4]): 30000 µM |
| Cn1ccc(C(F)(F)F)n1 [MB926] | 66 | 30 |  |
| O=C(O)CCc1cc2ccccc2o1 [T5480685] |  |  | Kd (NK1 [2]; [7]): 700 ± 200 µM |
| Cc1cc(C)on1 [MB1299] | 2 | 131 | Kd (NK1 [2]; [4]): 2200 µM |

| SMILES | Ranking order (NK1 [1]) | SPR response (NK1 [1]; [3]) [%] | further results |
| --- | --- | --- | --- |
| O=C(O)CCc1ccc(-c2ccccc2F)o1 [T5445870] |  |  | Kd (NK1 [2]; [7]): 2100 ± 300 µM |
| O=C(C1CCOCC1)N1CCCCC1 [MB1066] | 62 | 34 |  |
| CC(C)(N)CN1CCCC1 [MB1017] | 71 | 26 |  |
| Nc1ccc(OC(F)F)cc1 [MB1293] | 22 | 72 | Kd (NK1 [2]; [4]): 5000 µM |
| NC(=O)Cc1ccc(F)cc1Cl [MB1321] | 28 | 65 |  |
| O=C(O)CCc1cccs1 [5928-51-8, 2-thiophenepropanoic acid] |  |  | Kd (NK1 [2]; [7]): 1100 ± 300 µM |
| c1ccc2[nH]ncc2c1 [AT0381] | 44 | 53 | SPR response (NK1 [1]; [5]): 53%; Kd (NK1 [2]; KD): 740 ± 60 µM |
| Cc1noc(N)c1C [MB1136] | 55 | 39 |  |
| Cc1nc(C#N)cs1 [MB1250] | 3 | 126 | Kd (NK1 [2]; [4]): 1800 µM |
| O=C(C1CCCCO1)N1CCCC1 (stereo not drawn) [MB1067] | 68 | 28 |  |
| CN(C)C(=O)C1CCOCC1 [MB1065] | 57 | 38 |  |
| COC(=O)c1sc(C(C)(C)C)cc1N [MB914] | 63 | 34 |  |
| CCc1cccc(C(C)=O)c1 [MB1300] | 14 | 93 |  |
| Nc1cccc(S(N)(=O)=O)c1 [MB409] | 59 | 36 |  |
| O=C(O)c1ccccc1C(=O)c1ccc(F)cc1 [MB900] | 69 | 28 |  |
| O=P(O)(O)CCc1ccccc1 [4672-30-4, 2-phenylethyl phosphonic acid] |  |  | Kd (NK1 [2]; [7]): 2200 ± 400 µM |
| N#CCCNCC1CCCO1 (stereo not drawn) [MB975] | 65 | 33 |  |
| COC(=O)c1ccc(C)c(Cl)c1 [MB1307] | 31 | 62 |  |
| CCOC(=O)c1cnc2n(c1=O)CCS2 [MB415] | 58 | 37 |  |
| NC(=O)Cc1ccc(O)cc1 [MB1174] | 53 | 43 |  |

Reference: article PMC6054100, “Exploring the chemical space of the lysine-binding pocket of the first kringle domain of hepatocyte growth factor/scatter factor (HGF/SF) yields a new class of inhibitors of HGF/SF-MET binding” (Chemical Science, 2015)
